The numbers were not newly measured in patent US7374751B1, “QS-21 and IL-12 as an adjuvant combination” (Wyeth Holdings Corporation, priority 2001, dated 2008), which cites them from elsewhere.

For this data set the following is noted: clinical data, F/QS-21 formulation, immediately after injection.

On to QS-21, for which the local acute toxicity result was “associated with local acute toxicity immediately after injection”.
